63 molecules from a melting point compilation (Tetko et al.; mined from patent text by program, amines drawn as free bases though some values may be those of a salt) can be followed below.

The structures appear in SMILES notation.

As for `O=c1oc(-c2ccc(C(F)(F)F)cc2)nn1Cc1cc(Cl)ccc1OP(=O)(O)O`, the melting point (as a rule, the temperature of the solid-liquid transition) was in the range of 173 to 176 °C.

`CCN(CC)c1ccc(C2(c3ccc(N(CC)CC)cc3N(CC)CC)OC(=O)c3c(Cl)c(Cl)c(Cl)c(Cl)c32)cc1` (stereo not drawn): the melting point was 196 to 197 °C.

The molecule `Cc1cc(C(O)(C(F)(F)F)C(F)(F)F)cc(C)c1NCCC(=O)O` displayed a melting point of 175 to 176 °C.

For `CC(C)(N)CCOc1ccc(C2=NNC(=O)CC2)cc1Cl`, the melting point was in the range of 152 to 156 °C.

`CCOC(=O)c1cn(-c2ccc(F)cn2)c2nc(Cl)c(F)cc2c1=O`: the melting point worked out at 230 °C.

Molecule `FC(F)(F)C(Cl)=NC(c1ccccc1)(c1ccccc1)c1ccccc1` yielded a melting point of 144 to 145 °C.

`Cc1[nH]cnc1CCc1ccc2nc(N)sc2c1` displayed a melting point of 191 to 193 °C.

For the molecule `CN(C)CCCSC1=C(C#N)C(c2ccccn2)(c2ccccn2)C(=O)N1`, the melting point was in the range of 184 to 185 °C.

Molecule `COC(=O)c1ccc(C)cc1N` gave a melting point of 41 to 43 °C.

Molecule `CCOC(=O)c1cc(C(=O)c2ccccc2Cl)c(-n2c(C)nnc2CNC(=O)Nc2cccc(OC)c2)s1` showed a melting point of 132 to 134 °C.

With `O=C(CCl)c1ccc(CCO)cc1`, the melting point was 41 to 45 °C.

`COc1cc(N)c(I)cc1C(=O)NC1(C)CCN(CCCOc2ccc(F)cc2)CC1` had a melting point of 144 °C.

Consider `CS(=O)c1cncc(-c2nc(=O)c3ccccc3s2)n1` (stereo not drawn), for which the melting point was 228 to 230 °C.

`Cc1ccc(C=CC(=O)N[C@@H](Cc2ccc(OCCc3nc(-c4ccccc4)oc3C)c(Br)c2)C(=O)O)cc1` returned a melting point of 243 to 245 °C.

As to `CCCC1=C(C#N)C(c2ccccc2C#N)c2c[nH]nc2N1` (stereo not drawn), the melting point was found to be 218 °C.

As for `CCCCn1cnc2c1c(=O)n(CCCCC(C)=O)c(=O)n2C`, the melting point is 79 to 80 °C.

The molecule `CCOC(=O)c1ccc(C2=CCCCC2C(C)(C)C)cc1` (stereo not drawn) displayed a melting point of 50 °C.

`O=C(c1cccnc1)c1cc(-c2ccc(Cl)cc2)c(N2CCOCC2)s1` had a melting point of 114 °C.

Take `N#CCCNC(=O)c1cc(-c2cccc3nn(Cc4cccc(C(F)(F)F)c4)cc23)ccn1`: the melting point was 166 to 167 °C.

Take `Cc1ccc(N)cc1/C=C/c1nc(C(C)C)cs1`: the melting point lay within 60 to 61 °C.

For `CCn1cc(C(=O)O)c(=O)c2cc(F)c(N3CCNC(c4cc(C)sc4C)C3)cc21` (stereo not drawn), the melting point fell in the range of 248 to 250 °C.

Regarding `CC(C)CN1CC(O)C(O)C(O)C1CO` (stereo not drawn), the melting point is 192 to 194 °C.

Regarding `Cc1c(C2=NCCS2)[nH]c2c(NS(=O)(=O)c3cccs3)cccc12`, the melting point was 163 to 164 °C.

Molecule `CCc1ccc(C(=O)CCCCCN2CCC(CNC(=O)c3cc(Cl)c(N)cc3OC)CC2)cc1` displayed a melting point of 140 to 145 °C.

The molecule `O=c1cc(-c2ccsc2)c2ccc(O)cc2o1` returned a melting point of 234 to 236 °C.

Turning to `CN1Cc2c(C#N)ncn2-c2ccc(F)cc2C1=O`, the melting point lay in the range of 236 to 237 °C.

`CN(C)CCNc1cc(Cl)nc(-c2ccc(Cl)c(Cl)c2)n1` came in with a melting point of 99.5 to 102 °C.

Turning to `CCCNc1c(NCCCOc2cccc(CN3CCCCC3)c2)c(=O)c1=O`, the melting point lay in the range of 158 to 160 °C.

Take `CCN(CC)CC(O)CNC(=O)c1c(OC(=O)c2ccccc2)c2ccccc2n1-c1ccccc1` (stereo not drawn): the melting point is 130 to 133 °C.

Molecule `O=P(O)(O)C(O)(Cc1ccc2ccccc2c1)P(=O)(O)O` registered a melting point of 257 °C.

The molecule `CC(=O)OC1CC(C)(C)N(OC(=O)C23CC4CC(CC(C4)C2)C3)C(C)(C)C1` showed a melting point of 132 to 134 °C.

In turn, `CCc1cc(C(=O)c2ccccc2Cl)c(-n2c(CO)nnc2CNC(=O)c2ccc(Cl)c(Cl)c2)s1` registered a melting point of 125 to 128 °C.

Turning to `C=CCC1COC(CC)(CC(=O)O)c2[nH]c3c(C)c(F)ccc3c21` (stereo not drawn), the melting point fell in the range of 138 to 140 °C.

`CN(C)Cc1nnc2n1-c1ccc(Br)cc1C(c1ccccn1)=NC2` displayed a melting point of 163 to 164 °C.

With `COc1ccc(-c2cc(=O)n(Cc3cc(OC)c(OC)c(OC)c3)nc2-c2ccc(OC)cc2)cc1`, the melting point was in the range of 138 to 139 °C.

`C=CCN1CCC23CCCCC2C1Cc1ccc(O)cc13` (stereo not drawn) returned a melting point of 197 to 198 °C.

`CCOC(=O)c1ccc(-c2cc3c(N[C@H](C)c4ccccc4)ncnc3[nH]2)cc1` gave a melting point of 288 to 290 °C.

With `CC(C)CCCC(C)C1CCC2C3C=CC4=CC(=O)C5OC5C4(C)C3CCC12C` (stereo not drawn), the melting point lay in the range of 107 to 109 °C.

In turn, `Cc1ccc(C2COc3c(C)c(C)c(Br)c(C)c32)nc1` (stereo not drawn) had a melting point of 105 to 106 °C.

Molecule `COC(=O)C1OC2(CCC3(CC2)OC(C(=O)OC)C(C(=O)OC)O3)OC1C(=O)OC` (stereo not drawn) came in with a melting point of 75 to 77 °C.

The molecule `CCCC12CCC(=O)C=C1c1c(cc(OCC(=O)O)c(Cl)c1Cl)CC2` (stereo not drawn) displayed a melting point of 193 to 194 °C.

`C=CC(=O)OCCOc1ccc(-c2nc(-c3ccc(Cl)cc3)nc(-c3ccc(OCCOC(=O)C=C)cc3O)n2)c(O)c1`: the melting point lay within 115 to 120 °C.

`NC(=O)CN1C(=O)Cc2cc(Cl)ccc21`: the melting point was 226 °C.

Molecule `CCOC(=O)Cc1nc(N)cc(Cl)n1` displayed a melting point of 127 to 128 °C.

The molecule `CN(C)C(=O)CCC(=O)NC1CCC(CCN2CCC(c3cccc4c3CCO4)CC2)CC1` (stereo not drawn) registered a melting point of 205 °C.

As for `CS(=O)c1n[nH]c2ccccc2c1=O` (stereo not drawn), the melting point was in the range of 266 to 269 °C.

As to `Cc1nn(C)c2c1c1oc(=O)c(Sc3ccccc3)c(O)c1c(=O)n2-c1ccc(OC(F)(F)F)cc1`, the melting point is 136 to 139 °C.

`COc1ccc(OC)c(C(O)c2cccc(N)c2)c1` (stereo not drawn): the melting point lay within 132 to 134 °C.

As for `CCOC(=O)C=Cc1ccc2c(c1)ncn2-c1cccc(N2CCCCC2)c1`, the melting point is 85 to 87 °C.

For the molecule `CCC(Oc1ccc(C(C)(C)CC)cc1C(C)(C)CC)C(=O)Nc1ccc(Cl)c(NC(=O)C(C(=O)C(C)(C)C)N2C(=O)NC(=C(C)C)C2=O)c1` (stereo not drawn), the melting point was 178 to 179 °C.

With `Cc1c(NC(=O)c2ccc(-c3ccc(F)cc3)cc2)ccc2cc(CN3CCC(c4ccccc4)CC3)cnc12`, the melting point is 171 to 172 °C.

Molecule `COc1cc(NC(=O)OCCCN2CCC(c3nn(C)c4cc(F)ccc34)CC2)cc(OC)c1OC` had a melting point of 85 to 88 °C.

In turn, `CC1(C)[C@H](C=C(Cl)Cl)[C@@H]1C(=O)OCc1cccc(-c2ccc(Br)o2)c1` (relative stereo) had a melting point of 76.5 to 77 °C.

The molecule `CN1CCN(c2cc3nc(C(C)(C)C)sc3cc2N=C=S)CC1` yielded a melting point of 124 to 126 °C.

`CCOC(=O)c1c(Nc2ccc(Cl)cc2)n[nH]c1C` had a melting point of 223 to 225 °C.

Molecule `CN1C(=O)CN(CCC(=O)O)C1=O` had a melting point of 109 °C.

As for `O=C1NC(=O)C2(CCOc3ccc(F)cc32)N1` (stereo not drawn), the melting point lay within 239 to 241 °C.

Consider `O=CN(O)[C@@H](CN1C(=O)CNC1=O)CS(=O)(=O)c1ccc(Oc2ccc(OC(F)(F)F)cc2)cc1`, for which the melting point amounted to 154 °C.

Take `CCC12OC[C@@H](O1)[C@@H](O)C[C@H]2OC`: the melting point lay within 43 to 44 °C.

Take `CCCn1c(=O)c2[nH]c(/C=C/c3cc(OC)cc(OC)c3)nc2n(CCC)c1=O`: the melting point lay in the range of 249 to 250 °C.

With `CCCCCCCCC=CCCCCCCCCn1c(=O)[nH][nH]c1=O`, the melting point was 120 °C.

The molecule `CCCCCCCCCCCCCCC(=O)C(=O)N[C@@H](CCCC)COCC(=O)OCC` gave a melting point of 41 to 43 °C.

`Cc1nccn1CC#CCN1CCCC1=O` had a melting point of 81 to 85 °C.
